Experimental data from patent US10493091B2, “Method for storing P1, P4-bis(5′-uridyl)teraphosphate crystals” (Yamasa Corporation, priority 2015, dated 2019).

What was measured:
[1] = Stability test of packed UP4U crystals, four weeks of storage, HPLC purity; type: physicochemical; settings: for decrease in HPLC purity: regardless of the crystal pH
Protocol: (Packing of Test Sample) An amount of approximately 20 mg of each test sample was put into a pouch made of low-density polyethylene and sealed by heat sealing. This pouch was further put into a pouch made of low-density polyethylene and sealed by heat sealing. This pouch was still further put into a pouch made of low-density polyethylene and sealed by heat sealing. This pouch was put into a pouch made of aluminum-metallized film and sealed by heat sealing, thus preparing a sample for stability test. (Stability Test) Packed samples were put into thermostatic baths at 5° C., 25° C., 40° C., and 60° C., respectively, and stored for four weeks. (Analysis) For each sample zero days after the start of the stability test and samples of the same type at four weeks of storage at the different temperatures, the packing by sealing was opened and each of the test samples was dissolved in deionized water. This solution was analyzed by HPLC and, based on the analysis result, evaluated in terms of stability. The conditions of the measurement using HPLC in this analysis were as follows. [table] The evaluation was made by defining the value obtained by subtracting the HPLC purity (%) of crystals zero days after the start of the stability test from the HPLC purity (%) of the crystals at four weeks of storage as a rate of change (%).

[2] = pH measurement of UP4U crystals (crystal pH); type: physicochemical; settings: 1.0 g dissolved in 20 mL distilled water
Protocol: The term crystal pH in the present invention refers to the value of pH of crystals measured with 1 g of crystals dissolved in 20 mL of water. The control of the pH of UP4U crystals within a desired range of values is possible, for example, by controlling the pH of an original solution for use in crystallization. To control the pH, it is sufficient to use, as necessary, an arbitrary acid or alkali capable of being used for production of raw materials or the like for pharmaceutical products. An arbitrary one selected from hydrochloric acid, nitric acid, phosphoric acid, and so on can be used as the acid and an arbitrary one selected from sodium hydroxide, sodium carbonate, sodium hydrogen carbonate, and so on can be used as the alkali.
Control of UP4U Crystals with Different pHs UP4U crystals prepared by a known method were dissolved in deionized water. Various phosphoric acid aqueous solutions or sodium hydroxide aqueous solutions were each added to the solution containing UP4U dissolved therein to prepare solutions having different pHs (hereinafter, referred to as “original solutions”).
Ethanol was put into each of the original solutions to make the original solution lightly cloudy, followed by addition of a small amount of UP4U crystals and stirring for a dozen hours. After confirmation of crystal precipitation, ethanol was further put into each of the solutions, the solution was stirred, and crystals were then separated from the solution using a centrifuge. The obtained various crystals were dried with a circulation dryer to prepare various UP4U crystals having different pHs.
(pH Measurement) Water was sufficiently boiled and then cooled in a state where a carbon dioxide absorption tube was connected, thus preparing distilled water. An amount of 1.0 g of each test sample was dissolved in 20 mL of the prepared distilled water. The pH (crystal pH) of this solution was measured.

rate of change in HPLC purity ([1]; 5° C., four weeks of storage, crystal pH 4.60): 0.01% | rate of change in HPLC purity ([1]; 5° C., four weeks of storage, crystal pH 5.16): 0.00% | rate of change in HPLC purity ([1]; 5° C., four weeks of storage, crystal pH 5.54): 0.00% | rate of change in HPLC purity ([1]; 5° C., four weeks of storage, crystal pH 5.64): 0.00% | rate of change in HPLC purity ([1]; 5° C., four weeks of storage, crystal pH 5.97): 0.00% | rate of change in HPLC purity ([1]; 5° C., four weeks of storage, crystal pH 6.32): 0.00% | rate of change in HPLC purity ([1]; 5° C., four weeks of storage, crystal pH 6.66): −0.01% | rate of change in HPLC purity ([1]; 5° C., four weeks of storage, crystal pH 6.91): 0.00% | rate of change in HPLC purity ([1]; 5° C., four weeks of storage, crystal pH 7.12): 0.00% | rate of change in HPLC purity ([1]; 5° C., four weeks of storage, crystal pH 7.43): 0.01% | rate of change in HPLC purity ([1]; 5° C., four weeks of storage, crystal pH 7.97): 0.03% | rate of change in HPLC purity ([1]; 25° C., four weeks of storage, crystal pH 4.60): −0.01% | rate of change in HPLC purity ([1]; 25° C., four weeks of storage, crystal pH 5.16): −0.02% | rate of change in HPLC purity ([1]; 25° C., four weeks of storage, crystal pH 5.54): −0.02% | rate of change in HPLC purity ([1]; 25° C., four weeks of storage, crystal pH 5.64): −0.01% | rate of change in HPLC purity ([1]; 25° C., four weeks of storage, crystal pH 5.97): −0.02% | rate of change in HPLC purity ([1]; 25° C., four weeks of storage, crystal pH 6.32): −0.01% | rate of change in HPLC purity ([1]; 25° C., four weeks of storage, crystal pH 6.66): −0.03% | rate of change in HPLC purity ([1]; 25° C., four weeks of storage, crystal pH 6.91): −0.02% | rate of change in HPLC purity ([1]; 25° C., four weeks of storage, crystal pH 7.12): −0.02% | rate of change in HPLC purity ([1]; 25° C., four weeks of storage, crystal pH 7.43): −0.01% | rate of change in HPLC purity ([1]; 25° C., four weeks of storage, crystal pH 7.97): −0.01% | rate of change in HPLC purity ([1]; 40° C., four weeks of storage, crystal pH 4.60): −0.05% | rate of change in HPLC purity ([1]; 40° C., four weeks of storage, crystal pH 5.16): −0.04% | rate of change in HPLC purity ([1]; 40° C., four weeks of storage, crystal pH 5.54): −0.03% | rate of change in HPLC purity ([1]; 40° C., four weeks of storage, crystal pH 5.64): −0.02% | rate of change in HPLC purity ([1]; 40° C., four weeks of storage, crystal pH 5.97): −0.03% | rate of change in HPLC purity ([1]; 40° C., four weeks of storage, crystal pH 6.32): −0.02% | rate of change in HPLC purity ([1]; 40° C., four weeks of storage, crystal pH 6.66): −0.04% | rate of change in HPLC purity ([1]; 40° C., four weeks of storage, crystal pH 6.91): −0.04% | rate of change in HPLC purity ([1]; 40° C., four weeks of storage, crystal pH 7.12): −0.08% | rate of change in HPLC purity ([1]; 40° C., four weeks of storage, crystal pH 7.43): −0.15% | rate of change in HPLC purity ([1]; 40° C., four weeks of storage, crystal pH 7.97): −0.12% | rate of change in HPLC purity ([1]; 60° C., four weeks of storage, crystal pH 4.60): −0.25% | rate of change in HPLC purity ([1]; 60° C., four weeks of storage, crystal pH 5.16): −0.08% | rate of change in HPLC purity ([1]; 60° C., four weeks of storage, crystal pH 5.54): −0.07% | rate of change in HPLC purity ([1]; 60° C., four weeks of storage, crystal pH 5.64): −0.07% | rate of change in HPLC purity ([1]; 60° C., four weeks of storage, crystal pH 5.97): −0.08% | rate of change in HPLC purity ([1]; 60° C., four weeks of storage, crystal pH 6.32): −0.14% | rate of change in HPLC purity ([1]; 60° C., four weeks of storage, crystal pH 6.66): −0.18% | rate of change in HPLC purity ([1]; 60° C., four weeks of storage, crystal pH 6.91): −0.24% | rate of change in HPLC purity ([1]; 60° C., four weeks of storage, crystal pH 7.12): −0.46% | rate of change in HPLC purity ([1]; 60° C., four weeks of storage, crystal pH 7.43): −0.50% | rate of change in HPLC purity ([1]; 60° C., four weeks of storage, crystal pH 7.97): −0.87% | rate of change in HPLC purity ([1]; four weeks, one of: (1) 0° C. or more and less than 25° C., (2) 25° C. or more and less than 40° C. and crystal pH 4.5 to 8.0, (3) 40° C. or more and less than 60° C. and crystal pH 5.0 to 6.4): ≤ 0.15% | rate of change in HPLC purity ([1]; four weeks, one of: (4) 0° C. or more and less than 25° C., (5) 25° C. or more and less than 40° C. and crystal pH 4.5 to 7.4, (6) 40° C. or more and less than 60° C. and crystal pH 5.2 to 6.2): ≤ 0.10% | rate of change in HPLC purity ([1]; four weeks, one of: (7) 0° C. or more and less than 25° C., (8) 25° C. or more and less than 40° C. and crystal pH 4.6 to 6.6): ≤ 0.05% | decrease in HPLC purity ([1]; storage temperature 0° C. or more and less than 25° C.): substantially no decrease | decrease in HPLC purity ([1]; storage temperature of 60° C. or more): may significantly decrease | Crystal pH ([2]; original liquid pH 2.50): 4.60 | Crystal pH ([2]; original liquid pH 3.00): 5.16 | Crystal pH ([2]; original liquid pH 3.50): 5.54 | Crystal pH ([2]; original liquid pH 4.00): 5.64 | Crystal pH ([2]; original liquid pH 5.50): 5.97 | Crystal pH ([2]; original liquid pH 6.50): 6.32 | Crystal pH ([2]; original liquid pH 7.40): 6.66 | Crystal pH ([2]; original liquid pH 7.80): 6.91 | Crystal pH ([2]; original liquid pH 8.00): 7.12 | Crystal pH ([2]; original liquid pH 8.10): 7.43 | Crystal pH ([2]; original liquid pH 8.20): 7.97
SMILES: O=c1ccn([C@@H]2O[C@H](COP(=O)(O)OP(=O)(O)OP(=O)(O)OP(=O)(O)OC[C@H]3O[C@@H](n4ccc(=O)[nH]c4=O)[C@H](O)[C@@H]3O)[C@@H](O)[C@H]2O)c(=O)[nH]1 [UP4U crystals, P^1,P^4-bis(5′-uridyl)tetraphosphate]
